Measurements from patent US5573923A, “Method for removing N-terminal dipeptides from precursor polypeptides with immobilized dipeptidylaminopeptidase from dictyostelium discoideum” (Eli Lilly and Company, priority 1993, dated 1996).
Residues, ends and D or L forms follow the SMILES beside them. *: point of attachment. pNA = O=[N+]([O-])c1ccc(N*)cc1; AMC = Cc1cc(=O)oc2cc(N*)ccc12; βNA = c1ccc2cc(N*)ccc2c1; Cbz = O=C(OCc1ccccc1)*

Tests used:
[1] = system: dDAP; test: pH dependence of substrate cleavage by dDAP; format: biochemical, Dictyostelium discoideum; conditions: unbound dDAP
Method: The pH optima for the GFpNA cleaving ability of dDAP was determined by adjusting a buffer consisting of 0.5M Tris®, phosphate and citrate with 10% HCl or 10% NaOH to various pHs within the range of 3 to 8. dDAP enzyme was diluted 20-fold in a buffer containing 100 mM cysteamine and 10 mM NaCl. Bovine DAP-I was diluted 200-fold in the same buffer. A GFpNA substrate solution (4 mM) was prepared in 2% dimethylformamide. In a microtiter plate, 0.025 ml of the Tris/phosphate/citrate buffer of various pH's was combined with 0.1 ml of diluted enzyme and with 0.1 ml of substrate solution. The rate of increase of absorbance at 410 nm was determined on a plate-reader over a 30 minute period.
Four mM GRpNA was prepared in 50 mM acetic acid, 50 mM glycine buffer, pH 5. HCl or NaOH was used to achieve a variety of pHs, from 5.1 to 2.3. To 180 ul of the above pH buffered substrate was added 5 ul dDAP (49 milliunits/ml final). The rate of increase of absorbance at 410 nm was monitored (using a plate-reader) and the rate of increase was compared with the pH of the reaction solution.
(§1) About 0.25 mM RRBNA or 0.25 mM Z-RRBNA was prepared in either 100 mM acetic acid, pH 3.5, or 100 mM citrate buffer, pH 5.0. To 2 ml of substrate was added dDAP or bovine DAP-I (about 15 milliunit/ml solution). Rates of cleavage (monitoring fluorescence increase at 410 nm with excitation at 340 nm) were monitored. […] The pH optimum for cleavage of RRBNA was probed by monitoring the rate of RRBNA cleavage using a buffer system consisting of 50 mM acetic acid and 50 mM citrate. Various pHs were achieved using HCl or NaOH and 1.5 ml volumes were made 2.0 with 0.5 ml of a 1 mM stock solution of RRBNA (final concentration of about 0.25 mM). dDAP was added (to about 15 mU/ml) and the rates of cleavage were determined.
The skilled artisan will recognize that the optimum pH for cleavage of a substrate not only depends upon the enzyme but the substrate itself, that is, the constitution of the removed dipeptide as well as the indicator group itself.

[2] = system: dDAP; test: Cleavage of RRBNA and Z-RRBNA (fluorescence increase); format: biochemical, Dictyostelium discoideum; conditions: about 0.25 mM substrate, pH 3.5 or pH 5.0, about 15 milliunit/ml enzyme
Method: as §1

[3] = target: T1, bovine DAP-I (Bos taurus, UniProt Q3ZCJ8); test: as above; format: biochemical; conditions: about 0.25 mM substrate, pH 3.5 or pH 5.0, about 15 milliunit/ml enzyme
T1 construct: bovine spleen DAP-I; from tissue; host or cells: bovine spleen
T1 sequence (Q3ZCJ8 231-394 limits assumed): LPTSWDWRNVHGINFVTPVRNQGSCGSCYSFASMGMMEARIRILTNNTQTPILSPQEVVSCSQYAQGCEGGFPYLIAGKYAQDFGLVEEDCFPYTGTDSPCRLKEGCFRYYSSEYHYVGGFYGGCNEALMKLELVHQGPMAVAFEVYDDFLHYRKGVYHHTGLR
T1 sequence (Q3ZCJ8 395-463 limits assumed): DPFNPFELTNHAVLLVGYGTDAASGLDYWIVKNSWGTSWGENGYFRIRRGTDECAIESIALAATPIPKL
T1 sequence (Q3ZCJ8 25-143 limits assumed): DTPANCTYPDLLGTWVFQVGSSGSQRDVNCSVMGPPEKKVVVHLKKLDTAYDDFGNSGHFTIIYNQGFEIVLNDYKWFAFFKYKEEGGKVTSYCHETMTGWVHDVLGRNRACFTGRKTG
Method: as §1

[4] = target: T2, bovine spleen DAP-I (Bos taurus, UniProt Q3ZCJ8); test: Inhibition of GFpNA cleavage by sulfhydryl modifying agents; format: biochemical; conditions: 5 mM inhibitor, 15 minutes at room temperature, pH 7; then 4 mM GFpNA, pH 3.5, 37° C.; read-out: decrease (inhibition) of rate of cleavage of GFpNA
T2 construct: bovine spleen DAP-I; from tissue; host or cells: bovine spleen
T2 sequence (Q3ZCJ8 231-394 limits assumed): as the sequence (Q3ZCJ8 231-394 limits assumed) above
T2 sequence (Q3ZCJ8 395-463 limits assumed): as the sequence (Q3ZCJ8 395-463 limits assumed) above
T2 sequence (Q3ZCJ8 25-143 limits assumed): as the sequence (Q3ZCJ8 25-143 limits assumed) above
Method: (§2) After purification or storage, dDAP enzymatic activity was usually monitored by following the cleavage of the chromogenic substrate GFpNA. Typically the assay was performed by diluting the enzyme at least 11 fold into 1.0 ml of 4 mM GFpNA in 0.05M acetic acid adjusted to pH 3.5. The rate of cleavage of Gly-Phe dipeptide was monitored at 37° C. by measuring the increase in absorbance at 405 nm. One unit of activity leads to a 0.90 OD change per minute under these conditions. Unit/ml estimates can be made assuming an extinction coefficient for free p-nitroanilide (pNA) of 9.9 mM-1 cm-1 at 405 nm.
(§3) The inhibition profile of dDAP toward the substrate GFpNA was compared to that of bovine spleen DAP-I using iodoacetamide and potassium tetrathionate, sulfhydryl modifying agents known to inhibit the activity of bovine spleen DAP-I. Samples of dDAP or bovine spleen DAP-I were incubated for 15 minutes at room temperature in final concentrations of 0, 0.5, 5.0 or 50 mM of either inhibitor at pH 7 in 100 mM Tris buffer. The incubated solutions were then diluted 21-fold with 4 mM GFpNA, pH 3.5. The rate of cleavage was monitored by measuring the increase in absorbance at 405 nm at 37° C. Bovine DAP-I's rate of cleavage of GFpNA was decreased more than 90% by the exposure to 5 mM iodoacetamide and was 95% inhibited by 5 mM potassium tetrathionate.

[5] = system: dDAP; test: as above; format: biochemical, Dictyostelium discoideum; conditions: 0.5, 5.0 or 50 mM inhibitor, 15 minutes at room temperature, pH 7; then 4 mM GFpNA, pH 3.5, 37° C.
Method: as §2, §3

## NCC(=O)N[C@@H](Cc1ccccc1)C(=O)Nc1ccc([N+](=O)[O-])cc1 [GFpNA, Gly-Phe p-nitroanilide] (H-Gly-Phe-pNA)
[1]
  pH optimum for cleavage of the substrate: ~3.5 pH

## N=C(N)NCCC[C@H](NC(=O)CN)C(=O)Nc1ccc([N+](=O)[O-])cc1 [GRpNA, Gly-Arg-pNA] (H-Gly-Arg-pNA)
[1]
  activity over the pH range: little activity below pH 2.5 or above pH 5
[1]; listed as G1y-Arg-pNA
  pH optimum for cleavage of the substrate: ~3.5 pH

## Cc1cc(=O)oc2cc(NC(=O)[C@H](CCCNC(=N)N)NC(=O)CN)ccc12 [Gly-Arg-7-amido-4-methylcoumarin] (H-Gly-Arg-{AMC})
[1]
  pH optimum for cleavage of the substrate: ~5 pH

## N=C(N)NCCC[C@H](NC(=O)[C@@H](N)CCCNC(=N)N)C(=O)Nc1ccc2ccccc2c1 [RRBNA, Arg-Arg-β-naphthylamide] (H-Arg-Arg-βNA)
[2]
  cleavage of substrate: able to effectively cleave
[3]
  cleavage of substrate: unable to cleave
[1]
  activity over the pH range: significant activity seen over the entire range probed (pH 3.5 to pH 5.7)

## N=C(N)NCCC[C@H](NC(=O)OCc1ccccc1)C(=O)N[C@@H](CCCNC(=N)N)C(=O)Nc1ccc2ccccc2c1 [Z-RRBNA, Benzyioxycarbonyl-RRBNA] (Cbz-Arg-Arg-βNA)
[2]
  cleavage of substrate: unable to cleave
[3]
  cleavage of substrate: unable to cleave

## NC(=O)CI [iodoacetamide]
[4]
  inhibition at 5000 µM: > 90%
[5]
  inhibition of GFpNA cleavage: no evidence of significant inhibition

## O=S(=O)([O-])SSS(=O)(=O)[O-].[K+].[K+] [potassium tetrathionate]
[5]
  inhibition of GFpNA cleavage: no evidence of significant inhibition
